Laboratory results from PubChem BioAssay (NCI).
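Abbreviation: GI50, concentration required for 50% inhibition of growth. TGI: concentration producing complete growth inhibition.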

Tests used:
Test in all cases: NCI anticancer screen, dose series, 384-well format
[1] = test system: SW-620 colon
[2] = test system: DU-145 prostate
[3] = test system: SK-MEL-2 melanoma
[4] = test system: NCI/ADR-RES ovarian
[5] = test system: HCT-116 colon
[6] = test system: SF-268 CNS
[7] = test system: NCI-H522 lung
[8] = test system: SK-MEL-5 melanoma
[9] = test system: HT29 colon
[10] = test system: MDA-MB-435 melanoma
[11] = test system: SF-295 CNS
[12] = test system: OVCAR-5 ovarian
[13] = test system: NCI-H23 lung
[14] = test system: SK-OV-3 ovarian
[15] = test system: UACC-257 melanoma
[16] = test system: HL-60(TB) leukemia
[17] = test system: LOX IMVI melanoma
[18] = test system: IGROV1 ovarian
[19] = test system: NCI-H460 NSCLC
[20] = test system: HOP-92 NSCLC
[21] = test system: MDA-MB-468 breast
[22] = test system: SNB-19 CNS
[23] = test system: SNB-75 CNS
[24] = test system: NCI-H226 lung
[25] = test system: EKVX NSCLC
[26] = test system: T-47D breast
[27] = test system: M14 melanoma
[28] = test system: MOLT-4 leukemia
[29] = test system: 786-0 renal
[30] = test system: CAKI-1 renal
[31] = test system: HOP-62 NSCLC
[32] = test system: MALME-3M melanoma
[33] = test system: UO-31 renal
[34] = test system: K-562 leukemia
[35] = test system: SR leukemia
[36] = test system: RPMI-8226 leukemia
[37] = test system: MCF7 breast
[38] = test system: ACHN renal
[39] = test system: SN12C renal
[40] = test system: OVCAR-4 ovarian
[41] = test system: TK-10 renal
[42] = test system: KM12 colon
[43] = test system: COLO 205 colon
[44] = test system: BT-549 breast
[45] = test system: HCT-15 colon
[46] = test system: UACC-62 melanoma
[47] = test system: SF-539 CNS

O=C(/C=C/c1cccc(S(=O)(=O)Nc2ccccc2)c1)NO
GI50 [1]: 188 nM
TGI [1]: 436 nM
GI50 [2]: 260 nM
TGI [2]: 793 nM
GI50 [3]: 265 nM
TGI [3]: 558 nM
GI50 [4]: 210 nM
TGI [4]: 551 nM
GI50 [5]: 205 nM
TGI [5]: 630 nM
GI50 [6]: 517 nM
TGI [6]: 1660 nM
GI50 [7]: 155 nM
TGI [7]: 610 nM
GI50 [8]: 155 nM
TGI [8]: 393 nM
GI50 [9]: 282 nM
TGI [9]: 918 nM
GI50 [10]: 492 nM
TGI [10]: 1450 nM
GI50 [11]: 607 nM
TGI [11]: 1910 nM
GI50 [12]: 369 nM
TGI [12]: 1480 nM
GI50 [13]: 407 nM
TGI [13]: 1590 nM
GI50 [14]: 490 nM
TGI [14]: 1650 nM
GI50 [15]: 289 nM
TGI [15]: 1030 nM
GI50 [16]: 223 nM
TGI [16]: 373 nM
GI50 [17]: 385 nM
TGI [17]: 1410 nM
GI50 [18]: 271 nM
TGI [18]: 781 nM
GI50 [19]: 350 nM
TGI [19]: 1500 nM
GI50 [20]: 343 nM
TGI [20]: 1070 nM
GI50 [21]: 196 nM
TGI [21]: 487 nM
GI50 [22]: 853 nM
TGI [22]: 2240 nM
GI50 [23]: 258 nM
TGI [23]: 796 nM
GI50 [24]: 1260 nM
TGI [24]: 3.05 µM
GI50 [25]: 1810 nM
TGI [25]: 8.53 µM
GI50 [26]: 208 nM
TGI [26]: 547 nM
GI50 [27]: 537 nM
TGI [27]: 2140 nM
GI50 [28]: 137 nM
TGI [28]: 267 nM
GI50 [29]: 898 nM
TGI [29]: 2780 nM
GI50 [30]: 218 nM
TGI [30]: 885 nM
GI50 [31]: 498 nM
TGI [31]: 2330 nM
GI50 [32]: 184 nM
TGI [32]: 450 nM
GI50 [33]: 1020 nM
TGI [33]: 3.17 µM
GI50 [34]: 188 nM
TGI [34]: 394 nM
GI50 [35]: 88.4 nM
TGI [35]: 204 nM
GI50 [36]: 95.7 nM
TGI [36]: 221 nM
GI50 [37]: 264 nM
TGI [37]: 1300 nM
GI50 [38]: 493 nM
TGI [38]: 1540 nM
GI50 [39]: 853 nM
TGI [39]: 2250 nM
GI50 [40]: 1880 nM
TGI [40]: 5.86 µM
GI50 [41]: 445 nM
TGI [41]: 2000 nM
GI50 [42]: 128 nM
TGI [42]: 1720 nM
GI50 [43]: 330 nM
TGI [43]: 791 nM
GI50 [44]: 925 nM
TGI [44]: 2820 nM
GI50 [45]: 579 nM
TGI [45]: 2100 nM
GI50 [46]: 217 nM
TGI [46]: 597 nM
GI50 [47]: 616 nM
TGI [47]: 2650 nM
